Results reported in patent publication US20250255867A1 (Kadmon Corporation, LLC, priority 2022, published 2025).

Experimental: All responses were assessed by the investigators.
Reported Adverse Events. […] All-cause mortality data collected during the study were assessed for all enrolled participants. Disease progression related death was not reported as AE.
Number of Participants With Treatment-emergent Adverse Events (TEAEs), and Treatment-emergent Serious Adverse Events (TESAEs). […] TEAEs included both SAEs and non-SAEs. […] Analysis was performed on safety population which included all participants who received at least 1 dose of study medication.

CC(C)NC(=O)COc1cccc(-c2nc(Nc3ccc4[nH]ncc4c3)c3ccccc3n2)c1 [Belumosudil, 2-{3-[4-(1H-indazol-5-ylamino)-2-quinazolinyl]phenoxy}-N-(propan-2-yl) acetamide]
4: Headache all grade, No. (Cohort 1 200 mg QD n=17) | Abdominal pain: # Events (Cohort 2 200 mg BID) | Alanine aminotransferase increased: # Events (Cohort 2 200 mg BID)
(18.75%): Alanine aminotransferase increased: Affected/At Risk (%) (Cohort 2 200 mg BID)
(6.25%): Abdominal pain upper: Affected/At Risk (%) (Cohort 2 200 mg BID) | Actinic keratosis: Affected/At Risk (%) (Cohort 2 200 mg BID) | Arthralgia: Affected/At Risk (%) (Cohort 2 200 mg BID) | Asthenia: Affected/At Risk (%) (Cohort 2 200 mg BID) | Balance disorder: Affected/At Risk (%) (Cohort 2 200 mg BID) | Basal cell carcinoma: Affected/At Risk (%) (Cohort 2 200 mg BID) | Blood alkaline phosphatase increased: Affected/At Risk (%) (Cohort 2 200 mg BID) | Blood chloride decreased: Affected/At Risk (%) (Cohort 2 200 mg BID) | Blood creatine increased: Affected/At Risk (%) (Cohort 2 200 mg BID) | Blood creatinine increased: Affected/At Risk (%) (Cohort 2 200 mg BID) | Bronchial secretion retention: Affected/At Risk (%) (Cohort 2 200 mg BID) | Chills: Affected/At Risk (%) (Cohort 2 200 mg BID) | Conjunctival haemorrhage: Affected/At Risk (%) (Cohort 2 200 mg BID)
63%: Patients with relative dose intensity >95% (Cohort 2)
5: Hypertension all grade, No. (Cohort 1 200 mg QD n=17) | SAE, No. (Cohort 1 200 mg QD n=17)
0: Death, No. (Cohort 1 200 mg QD n=17) | Drug-related SAE, No. (Cohort 1 200 mg QD n=17) | Abdominal distension: # Events (Cohort 2 200 mg BID) | Acute respiratory distress syndrome: # Events (Cohort 2 200 mg BID) | Adrenal insufficiency: # Events (Cohort 2 200 mg BID) | Anal incontinence: # Events (Cohort 2 200 mg BID) | Atelectasis: # Events (Cohort 2 200 mg BID) | Benign prostatic hyperplasia: # Events (Cohort 2 200 mg BID) | Blepharitis: # Events (Cohort 2 200 mg BID) | Blood cholesterol increased: # Events (Cohort 2 200 mg BID) | Blood creatine phosphokinase increased: # Events (Cohort 2 200 mg BID) | Blood loss anaemia: # Events (Cohort 2 200 mg BID) | Bronchitis: # Events (Cohort 2 200 mg BID) | Bronchoscopy: # Events (Cohort 2 200 mg BID) | Catheter site haemorrhage: # Events (Cohort 2 200 mg BID) | Chronic kidney disease: # Events (Cohort 2 200 mg BID)
(17.65%): Weight increased: Affected/At Risk (%) (Cohort 1 200 mg QD)
9: Weight increased: # Events (Cohort 1 200 mg QD) | Grade ≥3 AE, No. (Cohort 1 200 mg QD n=17) | URI all grade, No. (Cohort 1 200 mg QD n=17)
2: ALT/AST increased grade ≥3, No. (Cohort 1 200 mg QD n=17) | Anemia grade ≥3, No. (Cohort 1 200 mg QD n=17) | Hyperglycemia grade ≥3, No. (Cohort 1 200 mg QD n=17) | Acute kidney injury: # Events (Cohort 2 200 mg BID) | Aspartate aminotransferase increased: # Events (Cohort 2 200 mg BID) | Back pain: # Events (Cohort 2 200 mg BID)
1/16: Abdominal pain upper: Affected/At Risk (Cohort 2 200 mg BID) | Actinic keratosis: Affected/At Risk (Cohort 2 200 mg BID) | Arthralgia: Affected/At Risk (Cohort 2 200 mg BID) | Asthenia: Affected/At Risk (Cohort 2 200 mg BID) | Balance disorder: Affected/At Risk (Cohort 2 200 mg BID) | Basal cell carcinoma: Affected/At Risk (Cohort 2 200 mg BID) | Blood alkaline phosphatase increased: Affected/At Risk (Cohort 2 200 mg BID) | Blood chloride decreased: Affected/At Risk (Cohort 2 200 mg BID) | Blood creatine increased: Affected/At Risk (Cohort 2 200 mg BID) | Blood creatinine increased: Affected/At Risk (Cohort 2 200 mg BID) | Bronchial secretion retention: Affected/At Risk (Cohort 2 200 mg BID) | Chills: Affected/At Risk (Cohort 2 200 mg BID) | Conjunctival haemorrhage: Affected/At Risk (Cohort 2 200 mg BID) | Conjunctivitis: Affected/At Risk (Cohort 2 200 mg BID)
11: ALT/AST increased all grade, No. (Cohort 1 200 mg QD n=17)
1/17: White blood cell count decreased: Affected/At Risk (Cohort 1 200 mg QD)
0/16: Abdominal distension: Affected/At Risk (Cohort 2 200 mg BID) | Acute respiratory distress syndrome: Affected/At Risk (Cohort 2 200 mg BID) | Adrenal insufficiency: Affected/At Risk (Cohort 2 200 mg BID) | Anal incontinence: Affected/At Risk (Cohort 2 200 mg BID) | Atelectasis: Affected/At Risk (Cohort 2 200 mg BID) | Benign prostatic hyperplasia: Affected/At Risk (Cohort 2 200 mg BID) | Blepharitis: Affected/At Risk (Cohort 2 200 mg BID) | Blood cholesterol increased: Affected/At Risk (Cohort 2 200 mg BID) | Blood creatine phosphokinase increased: Affected/At Risk (Cohort 2 200 mg BID) | Blood loss anaemia: Affected/At Risk (Cohort 2 200 mg BID) | Bronchitis: Affected/At Risk (Cohort 2 200 mg BID) | Bronchoscopy: Affected/At Risk (Cohort 2 200 mg BID) | Catheter site haemorrhage: Affected/At Risk (Cohort 2 200 mg BID) | Chronic kidney disease: Affected/At Risk (Cohort 2 200 mg BID)
(12.5%): Abdominal pain: Affected/At Risk (%) (Cohort 2 200 mg BID) | Acute kidney injury: Affected/At Risk (%) (Cohort 2 200 mg BID) | Anxiety: Affected/At Risk (%) (Cohort 2 200 mg BID) | Aspartate aminotransferase increased: Affected/At Risk (%) (Cohort 2 200 mg BID) | Back pain: Affected/At Risk (%) (Cohort 2 200 mg BID) | Blister: Affected/At Risk (%) (Cohort 2 200 mg BID)
17: Any AE, No. of patients (Cohort 1 200 mg QD n=17)
4/16: Anaemia: Affected/At Risk (Cohort 2 200 mg BID)
(0%): Abdominal distension: Affected/At Risk (%) (Cohort 2 200 mg BID) | Acute respiratory distress syndrome: Affected/At Risk (%) (Cohort 2 200 mg BID) | Adrenal insufficiency: Affected/At Risk (%) (Cohort 2 200 mg BID) | Anal incontinence: Affected/At Risk (%) (Cohort 2 200 mg BID) | Atelectasis: Affected/At Risk (%) (Cohort 2 200 mg BID) | Benign prostatic hyperplasia: Affected/At Risk (%) (Cohort 2 200 mg BID) | Blepharitis: Affected/At Risk (%) (Cohort 2 200 mg BID) | Blood cholesterol increased: Affected/At Risk (%) (Cohort 2 200 mg BID) | Blood creatine phosphokinase increased: Affected/At Risk (%) (Cohort 2 200 mg BID) | Blood loss anaemia: Affected/At Risk (%) (Cohort 2 200 mg BID) | Bronchitis: Affected/At Risk (%) (Cohort 2 200 mg BID) | Bronchoscopy: Affected/At Risk (%) (Cohort 2 200 mg BID) | Catheter site haemorrhage: Affected/At Risk (%) (Cohort 2 200 mg BID) | Chronic kidney disease: Affected/At Risk (%) (Cohort 2 200 mg BID)
3/16: Alanine aminotransferase increased: Affected/At Risk (Cohort 2 200 mg BID)
8: Drug-related AE, No. (Cohort 1 200 mg QD n=17) | Anaemia: # Events (Cohort 2 200 mg BID)
(5.88%): Weight decreased: Affected/At Risk (%) (Cohort 1 200 mg QD) | White blood cell count decreased: Affected/At Risk (%) (Cohort 1 200 mg QD)
1: White blood cell count decreased: # Events (Cohort 1 200 mg QD) | Cough all grade, No. (Cohort 1 200 mg QD n=17) | Dyspnea grade ≥3, No. (Cohort 1 200 mg QD n=17) | Hypoxia grade ≥3, No. (Cohort 1 200 mg QD n=17) | Lung infection or pneumonia grade ≥3, No. (Cohort 1 200 mg QD n=17) | Abdominal pain upper: # Events (Cohort 2 200 mg BID) | Actinic keratosis: # Events (Cohort 2 200 mg BID) | Arthralgia: # Events (Cohort 2 200 mg BID) | Asthenia: # Events (Cohort 2 200 mg BID) | Balance disorder: # Events (Cohort 2 200 mg BID) | Basal cell carcinoma: # Events (Cohort 2 200 mg BID) | Blood alkaline phosphatase increased: # Events (Cohort 2 200 mg BID) | Blood chloride decreased: # Events (Cohort 2 200 mg BID) | Blood creatine increased: # Events (Cohort 2 200 mg BID) | Blood creatinine increased: # Events (Cohort 2 200 mg BID) | Bronchial secretion retention: # Events (Cohort 2 200 mg BID) | Chills: # Events (Cohort 2 200 mg BID) | Conjunctival haemorrhage: # Events (Cohort 2 200 mg BID) | Conjunctivitis: # Events (Cohort 2 200 mg BID)
3/17: Weight increased: Affected/At Risk (Cohort 1 200 mg QD)
(25%): Anaemia: Affected/At Risk (%) (Cohort 2 200 mg BID)
6: Diarrhea all grade, No. (Cohort 1 200 mg QD n=17) | Fatigue all grade, No. (Cohort 1 200 mg QD n=17) | Nausea all grade, No. (Cohort 1 200 mg QD n=17)
3: Dyspnea all grade, No. (Cohort 1 200 mg QD n=17) | Peripheral edema all grade, No. (Cohort 1 200 mg QD n=17) | Anxiety: # Events (Cohort 2 200 mg BID) | Blister: # Events (Cohort 2 200 mg BID)
2/16: Abdominal pain: Affected/At Risk (Cohort 2 200 mg BID) | Acute kidney injury: Affected/At Risk (Cohort 2 200 mg BID) | Anxiety: Affected/At Risk (Cohort 2 200 mg BID) | Aspartate aminotransferase increased: Affected/At Risk (Cohort 2 200 mg BID) | Back pain: Affected/At Risk (Cohort 2 200 mg BID) | Blister: Affected/At Risk (Cohort 2 200 mg BID)
